Data taken from BindingDB's records for doi:10.1021/jm00105a069 (Schering-Plough, 1991).

Experiment: Concentration required to cause 50% inhibition of platelet activating factor (PAF)-induced platelet aggregation of human platelet rich plasma when challenged with 25 nM PAF.

Row | IC50 [µM] | Compound
1 | 0.61 | CC(=O)N1CCC(=C2c3ccc(Cl)cc3CCc3cccnc32)CC1
2 | 28 | CC(=O)N1CCC(=C(c2ccc(Cl)cc2)c2ccccn2)CC1
3 | 0.81 | CC(=O)N1CCC(=C2c3ccc(Br)cc3CCc3cccnc32)CC1
4 | 1.4 | CC(=O)N1CCC(=C2c3ccccc3CCc3cccnc32)CC1
5 | 3.4 | COc1ccc2c(c1)CCc1cccnc1C2=C1CCN(C(C)=O)CC1
6 | 8.7 | CC(=O)N1CCC(=C2c3ccc(O)cc3CCc3cccnc32)CC1
7 | 1.8 | CC(=O)N1CCC(=C2c3cc(Cl)c(Cl)cc3CCc3cccnc32)CC1
8 | 2.4 | CCC(=O)N1CCC(=C2c3ccc(Cl)cc3CCc3cccnc32)CC1
9 | > 50 | CC(=O)N(C)CC/C=C1\c2ccc(Cl)cc2CCc2cccnc21
10 | 33 | CCCC(=O)N1CCC(=C2c3ccc(Cl)cc3CCc3cccnc32)CC1
11 | 41 | CC(=O)N1CCC(=C2c3ccccc3CCc3ccccc32)CC1
12 | > 50 | CC(=O)C1CCC(=C2c3ccc(Cl)cc3CCc3cccnc32)CC1 (centres undefined)
13 | > 50 | CC(=O)N(C)CC/C=C1/c2ccc(Cl)cc2CCc2cccnc21
14 | > 50 | CC(C)(C)C(=O)N1CCC(=C2c3ccc(Cl)cc3CCc3cccnc32)CC1
15 | 1 | CC(=O)N1CCC(=C2c3ccc(C)cc3CCc3cccnc32)CC1
16 | 0.82 | CC(=O)N1CCC(=C2c3cc(F)ccc3CCc3cccnc32)CC1
17 | 3.4 | CC(=O)N1CCC(=C2c3cc(Cl)ccc3CCc3cccnc32)CC1
18 | 1.5 | COc1cc([C@@H]2CC[C@@H](c3cc(OC)c(OC)c(OC)c3)O2)cc(OC)c1OC
19 | > 50 | O=C(c1ccccc1)N1CCC(=C2c3ccc(Cl)cc3CCc3cccnc32)CC1
20 | > 50 | CN1CCC(=C2c3ccccc3CCc3cccnc32)CC1
21 | 13 | O=CN1CCC(=C2c3ccc(Cl)cc3CCc3cccnc32)CC1
22 | > 50 | CN(C)CCC(c1ccc(Cl)cc1)c1ccccn1 (centres undefined) [clorfeniramina]
23 | 0.67 | CC(=O)N1CCC(=C2c3ccc(F)cc3CCc3cccnc32)CC1
24 | 1 | CC(=O)N1CCC(=C2c3cc(F)c(F)cc3CCc3cccnc32)CC1
